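Five compound concentrations were applied to cells in 96-well plates for 48 hours; endpoints were derived by simple linear interpolation of the resulting dose-response curve. At the GI50, growth is halved.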 Activity calls are given as the source filed them. No stated cut-off is given here; in the data, active = GI50 up to about 1.1 µM and inactive = higher.
Experiments:
Assay in all cases: NCI anticancer screen, dose series, 48 h
SNB-78 = test system: SNB-78
IGROV-1 = test system: IGROV-1
NCI-H226 = test system: NCI-H226
M14 = test system: M14
HOP-62 = test system: HOP-62
SK-MEL-28 = test system: SK-MEL-28
NCI-H23 = test system: NCI-H23
K562 = test system: K562
MOLT-4 = test system: MOLT-4
HCT-116 = test system: HCT-116
COLO 205 = test system: COLO 205
XF498 = test system: XF498
SN12C = test system: SN12C
DMS-273 = test system: DMS-273
NCI-H522 = test system: NCI-H522
HOP-92 = test system: HOP-92
LXFL 529 = test system: LXFL 529
DLD-1 = test system: DLD-1
SK-MEL-2 = test system: SK-MEL-2
SF-539 = test system: SF-539
CAKI-1 = test system: CAKI-1
NCI-H460 = test system: NCI-H460
SNB-75 = test system: SNB-75
SF-268 = test system: SF-268
OVCAR-4 = test system: OVCAR-4
HCT-15 = test system: HCT-15
ACHN = test system: ACHN
UO-31 = test system: UO-31
CCRF-CEM = test system: CCRF-CEM
SR = test system: SR
UACC-62 = test system: UACC-62
HL-60 = test system: HL-60
HCC 2998 = test system: HCC 2998
M19-MEL = test system: M19-MEL
SK-OV-3 = test system: SK-OV-3
786-0 = test system: 786-0
A498 = test system: A498
RPMI-8226 = test system: RPMI-8226
Malme-3M = test system: Malme-3M

CCOc1ccc(NC(=O)c2c(N/N=C/c3ccc(OC)cc3)nc(=O)[nH]c2C)cc1
GI50 (SNB-78): 57.8 µM (inactive)
GI50 (IGROV-1): 51.5 µM (inactive)
GI50 (NCI-H226): 41.6 µM (inactive)
GI50 (M14): 45.4 µM (inactive)
GI50 (HOP-62): 38.5 µM (inactive)
GI50 (SK-MEL-28): > 100 µM (inactive)
GI50 (NCI-H23): 65.8 µM (inactive)
GI50 (K562): > 100 µM (inactive)
GI50 (MOLT-4): > 100 µM (inactive)
GI50 (HCT-116): 38.6 µM (inactive)
GI50 (COLO 205): > 100 µM (inactive)
GI50 (XF498): > 100 µM (inactive)
GI50 (SN12C): 76 µM (inactive)
GI50 (DMS-273): 33.7 µM (inactive)
GI50 (NCI-H522): 22.9 µM (inactive)
GI50 (HOP-92): 46.2 µM (inactive)
GI50 (LXFL 529): > 100 µM (inactive)
GI50 (DLD-1): 63.5 µM (inactive)
GI50 (SK-MEL-2): 84.5 µM (inactive)
GI50 (SF-539): 37 µM (inactive)
GI50 (CAKI-1): 44.5 µM (inactive)
GI50 (NCI-H460): 56.4 µM (inactive)
GI50 (SNB-75): 37.8 µM (inactive)
GI50 (SF-268): > 100 µM (inactive)
GI50 (OVCAR-4): 34.7 µM (inactive)
GI50 (HCT-15): > 100 µM
GI50 (ACHN): 60 µM (inactive)
GI50 (UO-31): 49.4 µM (inactive)
GI50 (CCRF-CEM): > 100 µM (inactive)
GI50 (SR): > 100 µM (inactive)
GI50 (UACC-62): > 100 µM (inactive)
GI50 (HL-60): > 100 µM (inactive)
GI50 (HCC 2998): > 100 µM (inactive)
GI50 (M19-MEL): 85.5 µM (inactive)
GI50 (SK-OV-3): 33.6 µM (inactive)
GI50 (786-0): 52.2 µM (inactive)
GI50 (A498): 18.4 µM (inactive)
GI50 (RPMI-8226): > 100 µM (inactive)
GI50 (Malme-3M): 97.9 µM (inactive)
